From patent US9266911B2, “Camptothecin derivative, and preparation method thereof, and pharmaceutical composition and application” (priority 2011, dated 2016)
In brackets after ≈: the same amount, converted by molar mass. Several values for one entry are separate records, joined by “and”; a condition that tells them apart may be missing. Equal entries are not always repeated. Where two headings read alike, the source gives them in different places.

What was measured:
[1] = test system: H446 (small cell lung cancer) cells; test: CellTiter-Glo cell viability assay, H446 cells; format: cell-based, human; details: for viability at 0.1 µM / viability at 1 µM / viability at 10 µM: Homo sapiens, NCI-H446
Protocol: (§1) Using the CellTiter-Glo kit provided by Promega Corporation, cell viability assay was performed on cancer cell lines to evaluate the ability of a compound to kill cancer cells in the in-vitro experiments. The kit measures the ATP levels by an enzymatic Luciferase assay. Normal viable cells will produce a certain level of ATP in metabolism. The enzymic reaction between the ATP product and the luciferase will emit a certain level of luminescent signal, which is captured by a luminometer and recorded as a certain luminescent read. […] When using this method to evaluate the anti-cancer activity of a compound, a certain concentration of an anti-cancer drug is added to the same amount of viable cancer cells, and the luminescent signal reading is acquired at a certain time point via CellTiter-Glo kits. […] Detailed procedure is as follows: a certain amount of small cell lung cancer cells (ATCC catalog No. H446), breast cancer cells (ATCC catalog No. MDAMB231) or colon cancer cells (ATCC catalog No. HCT116) are seeded in 96 wells with the same cell-culture medium, then respectively treated with WQ1001 and other anti-cancer drugs for a time course of 24, 48, and 72 hours. At the respective time points, the cancer cells are mixed with CellTiter-Glo reagents for 1 hour and the corresponding luminescent signals are recorded. Since the luminescent signal reading is proportional to the amount of viable cancer cells, the luminescent signal reading can be translated into the amount of viable cancer cells correspondingly. The cell livability rate is obtained by dividing the amount of viable cancer cells after treated with a certain concentration of anti-cancer drug by the amount of viable cancer cells of the Control Group which are not treated with the drug.

[2] = test system: MDAMB231 (breast cancer) cells; test: CellTiter-Glo cell viability assay, MDAMB231 cells; format: cell-based; details: 48 hours; for viability at 0.1 µM / viability at 1 µM / viability at 10 µM: Homo sapiens, read-out: MDAMB231 cell viability after drug treatment; for viability at 0.1 µM: MDA-MB-231, 0.1 μM; for viability at 1 µM: MDA-MB-231, 1.0 μM; for viability at 10 µM: MDA-MB-231, 10 μM
Protocol: as §1

[3] = test system: HCT116 (colon cancer) cells; test: CellTiter-Glo cell viability assay, HCT116 cells; format: cell-based; details: for viability at 0.1 µM / viability at 1 µM / viability at 10 µM: Homo sapiens, read-out: HCT116 cell viability after drug treatment for 48 hours
Protocol: as §1

Water-solubility = format: physicochemical; details: for solubility: water
Protocol: (§2) Table 15 lists comparison of properties between the representative compounds of the present invention and several existing CPT derivatives. In the test, the lactone ring stability was characterized by lactone ring conservation rate measured by HPLC (liquid chromatogram) after placing the test compounds in buffer solution of pH 7.4. The anticancer activity was characterized by viability of H446 cancer cells at 10 μM drug concentration. From the Table, one can learn the differences in water-solubility, lactone ring stability and toxicology of the compounds of the present invention.

[4] = Lactone ring stability (lactone ring conservation rate by HPLC in pH 7.4 buffer); format: physicochemical; details: lactone ring conservation rate by HPLC after placing in buffer solution of pH 7.4
Protocol: as §2

human serum album = human serum album (Homo sapiens, UniProt P02768); details: physiological condition; cited from earlier work
[5] = test system: human colon cancer HT-29 nude mouse xenograft; test: In vivo antitumor efficacy, HT-29 nude mouse xenograft model; details: 35 mg/kg
[6] = test system: human breast cancer MCF-7 nude mouse xenograft; test: In vivo antitumor efficacy, MCF-7 nude mouse xenograft model; details: 35 mg/kg
[7] = test system: human small cell lung cancer NCI-H446 nude mouse xenograft; test: In vivo antitumor efficacy, NCI-H446 nude mouse xenograft model
Protocol: The drugs were administered by intravenous injection.
WQ1001 was administered by I.V. injection once every other day for 3 consecutive times, followed by 7 days' rest without drug administration, then one more circle was performed, for a total of 6 times of administration.

[8] = test system: human multiple myeloma NCI-H929 nude mouse xenograft; test: In vivo antitumor efficacy, NCI-H929 nude mouse xenograft model; details: 10 mg/kg (Table 23), intraperitoneal
Protocol: The human multiple myeloma NCI-H929 cells were grafted to nude mice. […] Two days after tumor cell implantation, the drugs were administered by intraperitoneal injection once every 4 days for a total of 3 injections (on Day 2, 6, 10 after cancer cell implantation). The body weight was measured every 2 days.

[9] = H446 cells, 0.1 μM, 48 hours, read-out: H446 cell viability after drug treatment for 48 hours
[10] = H446 cells, 1.0 μM, 48 hours, read-out: H446 cell viability after drug treatment for 48 hours
[11] = H446 cells, 10 μM, 48 hours, read-out: H446 cell viability after drug treatment for 48 hours
[12] = viability of H446 cancer cells at 10 μM drug concentration (Table 15), read-out: Cancer cell viability
[13] = viability of H446 cancer cells at 10 μM drug concentration (Table 15)
[14] = topotecan 10 mg/kg i.v., D0, 4, 7, 11, 14, 17, D22

Sequence of human serum album (P02768 25-609): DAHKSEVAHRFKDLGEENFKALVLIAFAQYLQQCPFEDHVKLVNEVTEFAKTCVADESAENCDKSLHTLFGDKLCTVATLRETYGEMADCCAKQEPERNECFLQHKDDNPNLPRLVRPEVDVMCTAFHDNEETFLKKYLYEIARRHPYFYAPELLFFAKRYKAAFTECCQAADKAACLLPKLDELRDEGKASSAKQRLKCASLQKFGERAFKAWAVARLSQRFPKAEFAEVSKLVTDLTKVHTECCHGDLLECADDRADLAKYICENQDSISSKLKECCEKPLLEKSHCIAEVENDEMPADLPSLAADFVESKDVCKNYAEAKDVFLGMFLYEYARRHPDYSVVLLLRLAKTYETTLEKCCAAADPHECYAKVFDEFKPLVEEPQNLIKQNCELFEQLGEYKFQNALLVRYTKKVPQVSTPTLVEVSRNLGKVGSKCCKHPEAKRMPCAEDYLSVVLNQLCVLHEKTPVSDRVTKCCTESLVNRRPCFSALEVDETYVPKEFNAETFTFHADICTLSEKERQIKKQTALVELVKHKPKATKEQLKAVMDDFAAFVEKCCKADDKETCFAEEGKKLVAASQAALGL

CC[C@@]1(O)C(=O)OCc2c1cc1n(c2=O)Cc2cc3cc(O)ccc3nc2-1 [10-hydroxyl CPT, 10-Hydroxy-CPT (SN22)]
viability at 0.1 µM [1, 9]: 72%
viability at 1 µM [1, 10]: 30%
viability at 10 µM [1, 11]: 24%
viability at 0.1 µM [2]: 53%
viability at 1 µM [2]: 40%
viability at 10 µM [2]: 18%
viability at 0.1 µM ([3]; HCT-116, 0.1 μM, 48 hours): 15%
viability at 1 µM ([3]; HCT-116, 1.0 μM, 48 hours): 1%
viability at 10 µM ([3]; HCT-116, 10 μM, 48 hours): 9%

CC[C@@]1(O)C(=O)OCc2c1cc1n(c2=O)Cc2cc3ccccc3nc2-1 [CPT, Camptothecin]
viability at 0.1 µM [1, 9]: 65%
viability at 1 µM [1, 10]: 51%
viability at 10 µM [1, 11]: 24%
viability at 10 µM [1, 12]: < 30%
viability at 0.1 µM [2]: 13%
viability at 1 µM [2]: 5%
viability at 10 µM [2]: 3%
HCT116 cell viability after drug treatment for 48 hours ([3]; 1.0 μM): 82%
viability at 0.1 µM ([3]; HCT-116, 48 h, 0.1 μM): 107%
viability at 1 µM ([3]; HCT-116, 48 h, 1.0 μM): 76%
solubility (Water-solubility): < 100 µg/mL
Lactone ring stability [4]: <50%

CC[C@@]1(OP(=O)(O)O)C(=O)OCc2c1cc1n(c2=O)Cc2cc3ccccc3nc2-1 [CPT-20(S)-phosphate]
Cancer cell viability [1, 13]: >85%
Water-solubility (Water-solubility): >10000 µg/mL
Lactone ring stability [4]: >90%

CCc1c2c(nc3ccc(O)cc13)-c1cc3c(c(=O)n1C2)COC(=O)[C@]3(O)CC [SN38]
viability at 0.1 µM [1, 9]: 79%
viability at 1 µM [1, 10]: 60%
viability at 10 µM [1, 11]: 28%
viability at 0.1 µM [2]: 48%
viability at 1 µM [2]: 33%
viability at 10 µM [2]: 20%
viability at 0.1 µM ([3]; HCT-116, 48 h, 0.1 μM): 5%
viability at 1 µM ([3]; HCT-116, 48 h, 1.0 μM): 2%
viability at 10 µM ([3]; HCT-116, 48 h, 10 μM): 6%

CCC(O)(C(=O)O)c1cc2n(c(=O)c1CO)Cc1cc3ccccc3nc1-2 (stereo not drawn) [carboxylate derivative]
preferential binding to human serum album, relative to CPT (human serum album): 150 fold

COc1cc([C@@H]2c3cc4c(cc3[C@@H](O[C@@H]3O[C@@H]5CO[C@@H](C)O[C@H]5[C@H](O)[C@H]3O)[C@H]3COC(=O)[C@H]23)OCO4)cc(OC)c1O [etoposide]
viability at 0.1 µM [1, 9]: 95%
viability at 1 µM [1, 10]: 73%
viability at 10 µM [1, 11]: 47%
viability at 0.1 µM ([3]; HCT-116, 48 h, 0.1 μM): 102%
viability at 1 µM ([3]; HCT-116, 48 h, 1.0 μM): 89%
viability at 10 µM ([3]; HCT-116, 48 h, 10 μM): 29%

CCc1c2c(nc3ccc(OC(=O)N4CCC(N5CCCCC5)CC4)cc13)-c1cc3c(c(=O)n1C2)COC(=O)[C@]3(O)CC [irinotecan, Irinotecan]
viability at 10 µM [1, 12]: > 30%
solubility (Water-solubility): 1000 µg/mL (≈ 1700 µM)
Lactone ring stability [4]: <50%
RTV22 ([5]; D0, 3, 7, 10, 14, 17): 4.9 ± 1.3
Animal body-weight (g_) End ([5]; D0, 3, 7, 10, 14, 17, end): 18.7 ± 1.7 g
RTV22 ([6]; D0, 3, 7, 10, 14, 17): 1.9 ± 0.4
Animal body-weight (g_) End ([6]; D0, 3, 7, 10, 14, 17, end): 20.6 ± 1.4 g
Animal body-weight (g_) Start ([6]; D0, 3, 7, 10, 14, 17, start): 19.0 ± 0.8 g

Topotecan
H446 cell viability after drug treatment for 48 hours ([1]; H446 cells, 0.1 μM, 48 hours): 73%
H446 cell viability after drug treatment for 48 hours ([1]; H446 cells, 1.0 μM, 48 hours): 50%
H446 cell viability after drug treatment for 48 hours ([1]; H446 cells, 10 μM, 48 hours): 25% and 23%
Cancer cell viability [1, 13]: >30%
MDAMB231 cell viability after drug treatment ([2]; 0.1 μM): 68%
MDAMB231 cell viability after drug treatment ([2]; 1.0 μM): 50%
MDAMB231 cell viability after drug treatment ([2]; 10 μM): 23%
HCT116 cell viability after drug treatment for 48 hours ([3]; 0.1 μM): 26%
HCT116 cell viability after drug treatment for 48 hours ([3]; 1.0 μM): 2%
HCT116 cell viability after drug treatment for 48 hours ([3]; 10 μM): 6%
Water-solubility (Water-solubility): 1000 µg/mL
Lactone ring stability [4]: <50%
MTD (Maximum Toxicity Dosage) ([7]; NCI-H446 nude mice, i.v., 6 administrations): 10 mg/kg
animal death ([7]; WQ1001 40 mg/kg Group, topotecan 10 mg/kg Group, to D22): no animal death appeared
tumor growth ([7]; WQ1001 10, 20 and 40 mg/kg, topotecan 10 mg/kg, 6 administrations i.v.): significantly inhibited tumor growth
body weight change at the end of test ([7]; end of test (D22), WQ1001 40 mg/kg Group, topotecan 10 mg/kg Group): decreased significantly
RTV22 [7, 14]: 10.7 ± 4.8
T22/C22 (%) [7, 14]: 49.3%
Animal body-weight (g_) End ([7]; topotecan 10 mg/kg i.v., D0, 4, 7, 11, 14, 17, end (D22)): 16.4 ± 1.5 g
Animal body-weight (g_) Start ([7]; topotecan 10 mg/kg i.v., D0, 4, 7, 11, 14, 17, start): 17.6 ± 1.2 g
RTV11 ([8]; D2, 6, 10): 25.3 ± 14.8
T11/C11 (%) ([8]; D2, 6, 10): 62.7%
Animal body-weight (g_) End ([8]; D2, 6, 10, end (Day 11)): 19.2 ± 0.9 g
Animal body-weight (g_) Start ([8]; D2, 6, 10, start): 21.0 ± 1.6 g
